Data published in patent US9173875B2, “Treatment for nicotine-induced lung disease using peroxisome proliferator-activated receptor gamma agonists” (Los Angeles Biomedical Research Institute at Harbor-UCLA …, priority 2006, dated 2015).

Tests used:
WI38 cells [1] = test: Western blot of lipogenic and myogenic marker proteins in WI38 cells (nicotine with or without lipogenic pathway agonists); format: cell-based, human; conditions: PTHrP 5×10^−7 M, DBcAMP 1×10^−4 M, RGZ 1×10^−5 M
Description: (§1) The human embryonic cell line WI38 was obtained from American Type Culture Collection (Rockville, Md.). Cells were grown in MEM plus 10% FBS at 37° C. in six-well plates, four-well slides, and 60- and 100-mm culture dishes as needed.
Western blotting was performed with modifications of methods described previously (Ayad and Wong (1998) Crit. Care Med 26: 1277-1282). […] Equal amounts of the protein (25 μg) from the supernatant were dissolved in electrophoresis sample buffer and were subjected to SDS-PAGE (4-12% gradient) followed by electrophoretic transfer to a nitrocellulose membrane. Nonspecific binding of antibody was blocked by washing with Tris-buffered saline (TBS) containing 5% milk for 1 h. The blot was then subjected to two brief washes with TBS plus 0.5% Tween 20, incubated in TBS plus 0.1% Tween 20 and the specific primary antibodies (PPAR 1:2,000, Alexis Biochemicals, San Diego, Calif.; -SMA 1:50,000, Sigma; ADRP 1:3,000, a kind gift from Dr. Constantine Londos, National Institute of Diabetes and Digestive and Kidney Diseases) overnight at 4° C. Blots were then washed in TBS plus 0.1% Tween 20 and then incubated for 1 h in secondary antibody, washed, and developed with a chemiluminescent substrate (ECL; Amersham, Arlington Heights, Ill.) following the manufacturer's protocol.

WI38 cells [2] = test: Triglyceride uptake assay ([3H]triolein) in WI38 cells; format: cell-based, human; conditions: concomitant treatment; RGZ 1×10^−5 M, PTHrP 5×10^−7 M, DBcAMP 1×10^−4 M; nicotine 1×10^−9 M, 7 days
Description: as §1
The method used to quantitate triglyceride uptake by fetal rat lung fibroblasts has been described previously (Torday et al. (1995) Biochim Biophys Acta 1254: 198-206). Briefly, culture medium was replaced with DMEM containing 20% adult rat serum mixed with [3H]triolein (5 μCi/ml). The cells were incubated at 37° C. in 5% CO2+balance air for 4 h. At the termination of the incubation, the medium was decanted, the cells were rinsed twice with 1 ml of ice-cold MEM, and the cells were removed from the culture plate after a 5- to 10-min incubation with 2 ml of a 0.05% trypsin solution. An aliquot of the cell suspension was taken for protein assay (Bradford (1976) Anal Biochem 72: 248-254), and the remaining cell suspension was extracted for neutral lipid content.

WI38 cells [3] = test: Reversal experiment, triglyceride (triolein) uptake by WI38 cells; format: cell-based, human; conditions: RGZ 10^−5 M, PTHrP 5×10^−7 M, DBcAMP 1×10^−5 M for 7 days after nicotine
WI38 cells [4] = test: Reversal of nicotine-induced LIF-to-MYF transdifferentiation in WI38 cells, Western analysis; conditions: for reversal of nicotine-induced decrease in PTHrP receptor expression: 7 days agonist after 7 days nicotine 10^−9 M (Example 3); for reversal of nicotine-induced decrease in PPARγ expression / reversal of nicotine-induced increase in αSMA expression: 7 days agonist after 7 days nicotine (Example 3); for reversal of nicotine-induced changes in expression of PTHrP receptor, PPARγ, ADRP, αSMA and calponin: RGZ 1×10^−5 M, PTHrP 5×10^−7 M, DBcAMP 1×10^−5 M for 7 days after 7 days nicotine
Description: The human embryonic cell line WI38 was obtained from the American Type Culture Collection (Rockville, Md.). Cells were grown in minimum essential medium (MEM) +10% fetal bovine serum at 37° C. in six-well plates, two well slides, and 60-mm and 100-mm culture dishes, as needed. […] Subsequently, the cells were treated with rosiglitazone (RGZ) (1×10^−5 M) (a PPARγ agonist), PTHrP (5×10^−7 M), or DBcAMP (1×10^−5 M) for 7 days, and the expression of PTHrP receptor, PPARγ, ADRP, calponin, and cSMA was determined by Western analysis and immunohistochemistry. Simultaneously, fibroblast function was characterized by measuring their capacity to take up triglycerides. Some experiments were performed in the presence of a specific PPARγ antagonist, GW9662. Medium containing fresh chemicals was added daily, and at the end of the experimental period the cells were processed as needed.
For Western blotting, cells were lysed using an extraction buffer [10 mM tris (hydroxymethyl) aminomethane (Tris, pH 7.5), 0.25 M sucrose, 1 mM EDTA, 5 mM benzamidine, 2 mM phenylmethylsulfonyl fluoride, and 10 (j.tg/ml each of pepstatin A, aprotinin, and leupeptin], and centrifuged at 140 g for 10 min (4° C.). Equal amounts of the protein (25 μg) from the supernatant were dissolved in electrophoresis sample buffer and were subjected to sodium dodecyl sulfate-polyacrylamide (4%-12% gradient) gel electrophoresis (SDS-PAGE) followed by electrophoretic transfer to a nitrocellulose memane. The nonspecific binding of antibody was blocked by washing with Tris-buffered saline (TBS) containing 0.1% Tween 20 (TBST) and 5% milk for 1 h. The blot was then subjected to two brief washes with TBST plus 0.5% Tween 20, incubated in TBST plus 0.1% Tween 20 and the specific primary antibodies (PPARγ 1:2000, Alexis Biochemicals, San Diego, Calif.; cSMA 1:50,000, Sigma, St. Louis, Mo.: ADRP 1:3000) overnight at 4° C. Blots were then washed in TBST plus 0.1% Tween 20 and then incubated for 1 h in secondary antibody, washed, and developed with a chemiluminescent substrate [enhanced chemiluminescence (ECL); Amersham, Arlington Heights, Ill.] following the manufacturer's protocol. The densities of the specific protein bands were quantified using a scanning densitometer (Eagle Eye II still video system, Stratagene, La Jolla, Calif.).

WI38 cells [5] = test: Reversal experiment, immunofluorescence double staining (ADRP or lipid droplets and αSMA) in WI38 cells; format: cell-based, human; conditions: RGZ 1×10^−5 M, DBcAMP 1×10^−5 M, 7 days after nicotine
Description: Cells were grown in minimum essential medium (MEM) +10% fetal bovine serum at 37° C. in six-well plates, two well slides, and 60-mm and 100-mm culture dishes, as needed. […] Subsequently, the cells were treated with rosiglitazone (RGZ) (1×10^−5 M) (a PPARγ agonist), PTHrP (5×10^−7 M), or DBcAMP (1×10^−5 M) for 7 days, and the expression of PTHrP receptor, PPARγ, ADRP, calponin, and cSMA was determined by Western analysis and immunohistochemistry. Simultaneously, fibroblast function was characterized by measuring their capacity to take up triglycerides. Some experiments were performed in the presence of a specific PPARγ antagonist, GW9662. Medium containing fresh chemicals was added daily, and at the end of the experimental period the cells were processed as needed.
The lipogenic and myogenic status of cultured WI38 cells was assessed by simultaneous staining for either lipid droplets or ADRP and αSMA. Lipids were detected by using either oil red 0 staining or ADRP expression (polyclonal anti-ADRP 1:500), and αSMA expression was assessed by using anti-αSMA (1:1000, mouse monoclonal IgG2a, Sigma, catalog No. A2547) primary antibody. […] At the end of the experimental period, slides were fixed in freshly prepared 4% paraformaldehyde. […] Slides were rinsed three times for 5 min and then mounted and visualized under a fluorescence microscope.

| Molecule | prevention of nicotine-induced decreases in PTHrP receptor and PPAR and increase in α-SMA protein expression (WI38 cells [1]) | prevention of nicotine-induced decrease in triglyceride uptake (WI38 cells [2]) | block of nicotine-induced decrease in triolein uptake (WI38 cells [3]) | reversal of nicotine-induced decrease in PTHrP receptor expression (WI38 cells [4]) | reversal of nicotine-induced decrease in PPARγ expression (WI38 cells [4]) | reversal of nicotine-induced increase in αSMA expression (WI38 cells [4]) | reversal of nicotine-induced changes in expression of PTHrP receptor, PPARγ, ADRP, αSMA and calponin (WI38 cells [4]) | reversal of nicotine-induced decreases in ADRP and lipid droplet staining and increase in αSMA staining (WI38 cells [5]) |
| --- | --- | --- | --- | --- | --- | --- | --- | --- |
| PTHrP-(1-34) | completely prevented | effectively prevented | at least partially blocked | reversed | reversed | reversed | almost completely reversed | – |
| CCCC(=O)Nc1ncnc2c1ncn2[C@@H]1O[C@@H]2COP(=O)(O)O[C@H]2[C@H]1OC(=O)CCC [DBcAMP, dibutyryl cAMP] | completely prevented | effectively prevented | at least partially blocked | reversed | did not reach statistical significance | reversed | almost completely reversed | reversed |
